{
  "source": "paper PMC7894572",
  "about": "(Chemmedchem, 2020)",
  "key": {"[1]": {"molecular_target": "T1, SARS‐CoV PL^pro (Severe acute respiratory syndrome coronavirus, UniProt P0C6X7)", "assay": "biochemical", "format": "biochemical"}, "[2]": {"molecular_target": "SARS‐CoV‐2 PL^pro (Severe acute respiratory syndrome coronavirus 2, UniProt P0DTD1)", "assay": "biochemical", "format": "biochemical"}, "[3]": {"tested_on": "SARS‐CoV‐2", "assay": "microbe, parasite or virus in culture", "format": "cell-based"}, "[4]": {"assay": "in vitro", "conditions": "African green monkey"}, "[5]": {"molecular_target": "T1, SARS‐CoV PL^pro", "conditions": "read-out: IC50 SARS‐CoV PL^pro; cited from earlier work"}},
  "note": "Where two headings read alike, the source gives them in different places.",
  "data": [
    {"compound": "C[C@@H](NC(=O)c1ccccc1Cl)c1cccc2ccccc12", "note": "[Compound 2 i, 2‐Chloro‐N‐[(1R)‐1‐naphth‐1‐ylethyl]benzamide]", "values": [
      {"measurement": "IC50", "setting": "[1]", "value": "6.5 ± 0.8", "unit": "µM"},
      {"measurement": "IC50", "setting": "[2]", "value": "15 ± 2", "unit": "µM"},
      {"measurement": "SI (selectivity index)", "setting": "[3]", "value": 212},
      {"measurement": "EC50", "setting": "[3]; Severe acute respiratory syndrome coronavirus 2, Vero C1008, 24 h, read-out: EC50 inhibition of SARS‐CoV‐2 replication", "value": "1.77 ± 1.6", "unit": "µM"},
      {"measurement": "melting point", "value": 133, "unit": "°C"},
      {"measurement": "CC50", "setting": "[4]", "value": "376 ± 1.36", "unit": "µM"}
    ]},
    {"compound": "CCc1ccccc1C(=O)NC(C)c1ccc2ccccc2c1", "note": "(centres unmarked) [Compound 19]", "values": [
      {"measurement": "IC50", "setting": "[5]", "value": "> 200", "unit": "µM"}
    ]},
    {"compound": "C[C@H](c1cccc2ccccc12)N1CCC(C(=O)NCc2cccc(F)c2)CC1", "note": "[Compound 20]", "values": [
      {"measurement": "IC50", "setting": "[5]", "value": 0.15, "unit": "µM"}
    ]}
  ]
}
